Assays:
[1] = Thermal stability of dioxetanes: first order decay of chemiluminescence of dilute solutions in xylene at several temperatures; format: physicochemical; settings: for t1/2: thermal decomposition (Table 4; temperature not given); for Ea: activation energy for thermal decomposition; for Ea / log A: dilute solutions in xylene; for t1/2 25° C. / log A: thermal decomposition
Method: (§1) Chemiluminescence intensities and rate measurements were performed using either a Turner Designs (Sunnyvale, Calif.) model TD-20e luminometer or a luminometer built in house (Black Box) which uses a photon counting photomultiplier. Temperature control of samples analyzed in the luminometers was achieved by means of a circulating bath connected to the instrument. Quantitative measurement of light intensities on the Turner luminometer was extended beyond the 10^4 linear range of the detector by a neutral density filter. Data collection was controlled by an Apple MacIntosh SE/30 computer using the LUMISOFT data reduction program (Lumigen, Inc., Southfield, Mich.).
Activation energies for thermal decomposition of dioxetanes 2c, h and i were determined by measuring the first order rate constant k for decay of chemiluminescence of dilute solutions in xylene at several temperatures.

[2] = Fluoride-triggered (TBAF) chemiluminescent decomposition of dioxetanes in DMSO; format: physicochemical; settings: for rates of fluoride-triggered decomposition compared / t1/2 trig.: 10 μL of 10^-6 M dioxetane with 50 μL of 1M TBAF in DMSO; for Rate acceleration: fluoride-triggered versus thermal decomposition; for t1/2: [F-] 1M, DMSO
Method: as §1
Stock solutions of dioxetanes 2c, 2e, 2g and for comparison, 4-(3-t-butyldimethylsilyloxyphenyl)-4-methoxyspiro [1,2-dioxetane-3,2'-tricyclo[3.3.1.1^3,7 ]decane] (2j), (preparation described in U.S. Pat. No. 4,962,192) were made to a concentration of 10^-6 M in DMSO. Serial dilutions in DMSO were made as required. Ten μL aliquots were triggered in 7×50 mm polypropylene tubes in a Turner Designs TD-20e luminometer by injection of 50 μL of a solution of tetra-n-butylammonium fluoride (TBAF) in DMSO (1M-10^-4 M) in the appropriate solvent, typically DMSO. Light intensity was attenuated when needed by a neutral density filter. All experiments were conducted at ambient temperature. Peak light intensity and decay rate diminished as the fluoride concentration was decreased. At the lowest concentration of fluoride, decay kinetics were not cleanly first order.
The half lives for decay were essentially independent of dioxetane concentration.
The rates of fluoride-triggered decomposition of dioxetanes 2c, h, i and j were compared in DMSO under identical conditions, i.e. 10 μL aliquot of a 10^-6 M solution of dioxetane with 50 μL of 1M TBAF in DMSO. […]

[3] = literature, cited from earlier work
[4] = Thermal and hydrolytic stability of dioxetane in aqueous buffer solution; format: physicochemical; settings: 0.33 mM, 1 mg/mL Enhancer A, 0.2M buffer pH 9.6, 37° C. versus room temperature, 5 days
Method: The thermal and hydrolytic stability of a 0.33 mM solution of dioxetane 2f containing 1 mg/mL of Enhancer A in 0.2M 2-amino-2-methyl-1-propanol buffer, pH 9.6 and 0.88 mM Mg^+2 was determined at 37° C. Solutions of the dioxetane were maintained at room temperature and 37° C. for 5 days. To each of 12 wells in a 96-well microplate was added 100 μL of each solution. The plate was incubated at 37° C. and chemiluminescence emission initiated by addition of 10 μL of solutions containing 1.1×10^-15 mol of AP. Light intensities were integrated for 2.5 hours. Stability of the dioxetane was assessed by comparing the average light yield of the sample incubated at 37° C. to the solution held at room temperature. A decrease in the amount of light emitted indicates decomposition of the dioxetane during the incubation period.

| Ea [1] | t1/2 25° C. [1] | log A [1] | Compound | t1/2 [1] | rates of fluoride-triggered decomposition compared [2] | t1/2 trig. [2] | Rate acceleration [2] | half life (t1/2) at 25° C. ([3]; 25° C.) | activation energy for decomposition [3] | thermal and hydrolytic stability in aqueous solution [4] | t1/2 ([2]; [Dioxetane 2h] 10^-6 M) | t1/2 ([2]; [Dioxetane 2h] 10^-7 M) | t1/2 ([2]; [Dioxetane 2h] 10^-8 M) | t1/2 ([2]; [Dioxetane 2h] 10^-9 M) |
| --- | --- | --- | --- | --- | --- | --- | --- | --- | --- | --- | --- | --- | --- | --- |
|  |  |  | COC1(c2cccc(O[Si](C)(C)C(C)(C)C)c2)OOC12C1CC3CC(C1)CC2C3 (centres unmarked) [Dioxetane 2j] | 3.8 yr | essentially the same rate | 7 s | 1.4 × 10^7 |  |  |  |  |  |  |  |
|  |  |  | C1C2CC3CC1CC(C2)C31OOC12C1CC3CC(C1)CC2C3 (centres unmarked) |  |  |  |  | several years | 37 kcal/mol |  |  |  |  |  |
|  |  |  | COC1(c2cccc(OP(=O)(O)O)c2)OOC1(C(C)C)C(C)C (centres unmarked) [Dioxetane 2f] |  |  |  |  |  |  | stable under these conditions |  |  |  |  |
| 28.1 kcal/mol | 1.2 yr | 12.85 | COC1(c2cccc(OC(C)=O)c2)OOC1(C(C)C)C(C)C (centres unmarked) [Dioxetane 2c] | 1.2 yr | essentially the same rate | 7 s | 5.5 × 10^6 |  |  |  |  |  |  |  |
| 28.5 kcal/mol | 1.1 yr | 13.2 | COC1(c2cccc(O)c2)OOC1(C1CCCCC1)C1CCCCC1 (centres unmarked) [Dioxetane 2i] | 1.1 yr | essentially the same rate | 6 s | 5.7 × 10^6 |  |  |  |  |  |  |  |

| Compound | Ea [1] | t1/2 25° C. [1] | log A [1] | t1/2 [1] | rates of fluoride-triggered decomposition compared [2] | t1/2 trig. [2] | Rate acceleration [2] | half life (t1/2) at 25° C. ([3]; 25° C.) | activation energy for decomposition [3] | thermal and hydrolytic stability in aqueous solution [4] | t1/2 ([2]; [Dioxetane 2h] 10^-6 M) | t1/2 ([2]; [Dioxetane 2h] 10^-7 M) | t1/2 ([2]; [Dioxetane 2h] 10^-8 M) | t1/2 ([2]; [Dioxetane 2h] 10^-9 M) |
| --- | --- | --- | --- | --- | --- | --- | --- | --- | --- | --- | --- | --- | --- | --- |
| COC1(c2cccc(O[Si](C)(C)C(C)(C)C)c2)OOC1(C1CCCCC1)C1CCCCC1 (centres unmarked) [Dioxetane 2h] | 29.4 kcal/mol | 1.7 yr | 13.7 | 1.7 yr | essentially the same rate | 7 s | 7.0 × 10^6 |  |  |  | 7.2 s | 6.2 s | 6.2 s | 6.7 s |

Source: US5892064A, “Chemiluminescent dialkyl-substituted 1,2-dioxetanes, methods of synthesis and use” (Lumigen, Inc., priority 1997, dated 1999)
